Assay results reported in patent US11078189B2, “Pharmaceutical compounds” (REVIRAL LIMITED, priority 2017, dated 2021).

Legend:
[1] = target: T1, RSV fusion (pCDNA3.1_A2_F in HEK 293T cells) (Human respiratory syncytial virus A, UniProt P03420); assay: RSV fusion assay; format: cell-based
T1 construct: expressed in transfected cells; host or cells: HEK 293T (ECACC 12022001)
Method: HEK 293T ((ECACC 12022001) cells were cultured in T75 culture flasks in Dulbecco's medium (DMEM) containing 10% Foetal Bovine serum (FBS), 50 units per mL Penicillin and 50 μg/mL Streptomycin and warmed to 37° C. prior to use. The cells were passaged by first washing briefly with 5 mL Phosphate buffered saline (PBS), followed by addition of 2 mL of Trypsin Ethylenediaminetetraacetic acid (EDTA) to detach the cells. Once cells had detached from the flask, 8 mL media was then added to and the cells dispersed via pipetting against the bottom of the flask.
The cells were counted and diluted to 3×10^5 cells/ml in fresh media. Two T75 flasks were each seeded with 15.6 mL diluted cells, cells were also subcultured at a ratio of between 1:2 and 1:10, to continue the stock. The flasks were then incubated for 24 h at 37° C. and 5% CO2.
The plasmid DNA (for pFR-Luc and pcDNA3. 1_Gal4/NFKB) to be transfected into the HEK 293T cells was first prepared in serum free media (Opti-MEM, Invitrogen), containing the transfection reagent FuGENE® 6 (Promega). Serum free media was placed in a 1.5 mL eppendorf tube then the FuGENE 6 was added into the media. The tube was vortexed for 1 s before being incubated at RT for 5 min. 7.79 ng of both pFR_luc and pCDNA3.1_A2_F plasmid DNA were added to tube 1 and 7.79 ng of pCDNA3.1_GAL4-NF-κB plasmid to tube 2. The tubes were vortexed for 1 second and then incubated at room temperature for 15 min. Each transfection mixture was then added into the media of one of the T75 flasks of 293T cells. Cells were cultured for 24h at 37° C., 5% CO2 in a humidified incubator.
Compounds were diluted (in a polypropylene round-bottomed 96 well plate) 1:3 in a twelve point dilution curve to give top [final] of either 25 μM, 3 μM, 1 μM or 500 nM. A control compound was included in every assay at a top concentration of 3 μM. Transfected cells were counted and diluted to 4×10^5 cells/mL in fresh media. 50 μL of transfection population 1 were added to all wells of the 96 well flat bottom white opaque assay plates. 100 μL diluted compound (2 rows per compound), control compound (one row) and controls (DMSO (0% inhibition, four wells), 3 μM positive control (100% inhibition, four wells) and media (transfection population 1 only, four wells) were added to the appropriate wells. 50 μL of the diluted (4×10^5 cells/mL) population 2 cells when then added to all wells, except the four wells of transfection population 1 only where an extra 50 μL of this cells population was added.
The plates were then incubated for 24 h at 37° C. and 5% CO2. After this time, 100 μL was removed from all wells and 60 μL of ONE-Glo™ (Promega) reagent, pre-equilibrated to room temperature, was added. Plates were then incubated for 3 min at room temperature before luminescence was read, using the ONE-Glo protocol, on the GloMax Explorer System (Promega) multimode reader. Analysis was carried out in Dotmatics software. All raw data were background subtracted (subtraction of mean 3 μM positive control value), before IC50 calculation.

RSV A2 VR-1540 = assay: RSV plaque reduction assay; format: cell-based; settings: human respiratory syncytial virus; Strain A2; n = 1; HEp-2 cells
Method: HEp-2 cells (ATCC, CCL23) were passaged in flasks and seeded in 96-well plates in DMEM containing antibiotics and supplemented with 10% FBS. During inoculation and subsequent incubation, cells were cultured in DMEM containing 3% FBS. 100 plaque forming unit (PFU)/well of RSV (RSV A2 VR-1540) was mixed with ten serial dilutions of compound. Subsequently, 100 μL of the virus/compound mixtures was added to confluent HEp-2 cell monolayers. The cells and virus/compound mixtures were incubated at 35° C. in a humidified 5% CO2 incubator for 1 day.
Cells were washed twice with PBS before adding 50% v/v EtOH/MeOH, and then stored at −20° C. On the day of the staining, fixative was first removed from the plates. Plates were washed 3× with PBS. A pre-titrated amount of the primary antibody was added in 60 μL PBS/2% milk powder, and plates incubated for 1 h at […]. The plates were washed 3× with PBS/0.05% Tween20 before addition of goat anti-mouse horse radish peroxidase in 60 μL PBS/2% milk powder, and incubated for 1 h at rt. Following three wash steps with PBS/0.05% Tween20, 60 μL ready-to-use TrueBlue was added and plates were incubated at rt for 10-15 min before adding MilliQ water. Plates were washed once with water, incubated for 30-60 min and after removal of water, air-dried in the dark.
Plates were scanned and analyzed using the Immunospot S6 UV analyzer, which is equipped with BioSpot analysis software for counting immunostained plaques (virospots). Plaque counts were used to calculate % infection relative to the mean of the spot count (SC) in the virus control wells for RSV. IC50/IC90 values were calculated as 50% or 90% reduction in signal, respectively, by interpolation of inhibition curves fitted with a 4-parameter nonlinear regression with a variable slope in GraphPad 5.0 (Prism).

MDR1 = assay: in vitro; format: in vitro ADME; settings: dog, MDCK-MDR1
Method: MDR1-MDCK cells obtained from the NIH (Rockville, Md., USA) are used between passage numbers 6-30. Cells are seeded onto Millipore Multiscreen Transwell plates at 3.4×10^5 cells/cm^2. The cells are cultured in DMEM and media is changed on day 3. On day 4 the permeability study is performed. Cell culture and assay incubations are carried out at 37° C. in an atmosphere of 5% CO2 with a relative humidity of 95%. On the day of the assay, the monolayers are prepared by rinsing both basolateral and apical surfaces twice with Hanks Balanced Salt Solution (HBSS) at the desired pH warmed to 37° C. Cells are then incubated with HBSS at the desired pH in both apical and basolateral compartments for 40 min to stabilise physiological parameters.
The dosing solutions are prepared by diluting test compound with assay buffer to give a final test compound concentration of 10 μM (final DMSO concentration of 1% v/v). The fluorescent integrity marker lucifer yellow is also included in the dosing solution. Analytical standards are prepared from test compound DMSO dilutions and transferred to buffer, maintaining a 1% v/v DMSO concentration.
For assessment of A-B permeability, HBSS is removed from the apical compartment and replaced with test compound dosing solution. The apical compartment insert is then placed into a companion plate containing fresh buffer (containing 1% v/v DMSO). For assessment of B-A permeability, FIBSS is removed from the companion plate and replaced with test compound dosing solution. Fresh buffer (containing 1% v/v DMSO) is added to the apical compartment insert, which is then placed into the companion plate. At 60 min the apical compartment inserts and the companion plates are separated and apical and basolateral samples diluted for analysis. Test compound permeability is assessed in duplicate. Compounds of known permeability characteristics are run as controls on each assay plate.
Test and control compounds are quantified by LC-MSMIS cassette analysis using an 8-point calibration with appropriate dilution of the samples. The starting concentration (C0) is determined from the dosing solution and the experimental recovery calculated from C0 and both apical and basolateral compartment concentrations. The integrity of the monolayer throughout the experiment is checked by monitoring lucifer yellow permeation using fluorimetric analysis. Lucifer yellow permeation is high if monolayers have been damaged.

T1 sequence (P03420 26-109): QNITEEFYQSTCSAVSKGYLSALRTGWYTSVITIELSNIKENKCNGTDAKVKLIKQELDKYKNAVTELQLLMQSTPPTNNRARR
T1 sequence (P03420 137-574): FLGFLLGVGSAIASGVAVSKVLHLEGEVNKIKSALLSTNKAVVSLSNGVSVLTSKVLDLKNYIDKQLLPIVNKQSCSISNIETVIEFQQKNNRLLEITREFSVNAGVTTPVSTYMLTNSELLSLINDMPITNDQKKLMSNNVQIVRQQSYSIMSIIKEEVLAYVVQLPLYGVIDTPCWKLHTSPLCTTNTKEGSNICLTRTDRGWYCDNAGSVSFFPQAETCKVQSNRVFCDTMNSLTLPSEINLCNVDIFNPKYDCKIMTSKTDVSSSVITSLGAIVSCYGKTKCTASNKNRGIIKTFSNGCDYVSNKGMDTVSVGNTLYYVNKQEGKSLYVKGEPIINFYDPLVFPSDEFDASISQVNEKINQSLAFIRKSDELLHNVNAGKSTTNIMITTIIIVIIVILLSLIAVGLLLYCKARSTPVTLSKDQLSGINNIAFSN

| SMILES | IC50 [1] [µM] | IC50 (RSV A2 VR-1540) [µM] | IC90 (RSV A2 VR-1540) [µM] | Papp A→B at 60 min, 10 μM (MDR1) [×10⁻⁶ cm/s] | Papp B→A at 60 min, 10 μM (MDR1) [×10⁻⁶ cm/s] |
| --- | --- | --- | --- | --- | --- |
| CC(C)[C@H](NCCCn1c(CN2C(=O)C3(CC3)c3ccc(F)cc32)nc2cc(Cl)ccc21)C(N)=O [Compound 12, (2S)-2-({3-[5-chloro-2-({6′-fluoro-2′-oxo-1′,2′-dihydrospiro[cyclopropane-1,3′-indole]-1′-yl}methyl)-1H-1,3-benzodiazol-1-yl]propyl}amino)-3-methylbutanamide] | 0.071 | 0.029 | 0.2 |  |  |
| CCS(=O)(=O)CCNCCCn1c(CN2C(=O)C3(CC3)c3ccc(F)cc32)nc2cc(Cl)ccc21 [Compound 11, 1′-{[5-Chloro-1-(3-{[2-(ethanesulfonyl)ethyl]amino}propyl)-1H-1,3-benzodiazol-2-yl]methyl}-6′-fluoro-1′,2′-dihydrospiro[cyclopropane-1,3′-indole]-2′-one] | 0.024 | 0.005 | 0.041 |  |  |
| CS(=O)(=O)N1CCN(CCCn2c(CN3C(=O)C4(CC4)c4ccc(F)cc43)nc3cc(Cl)ccc32)CC1 [Compound 1, 1′-({5-Chloro-1-[3-(4-methanesulfonylpiperazin-1-yl)propyl]-1H-1,3-benzodiazol-2-yl}methyl)-6′-fluoro-1,2′-dihydrospiro[cyclopropane-1,3′-indole]-2′-one] | 0.019 | 0.0059 | 0.05 |  |  |
| CS(=O)(=O)N1CCN(CCn2c(CN3C(=O)C4(CC4)c4ccc(F)cc43)nc3cc(Cl)ccc32)CC1 [Compound 9, 1′-({5-chloro-1-[2-(4-methanesulfonylpiperazin-1-yl)ethyl]-1H-1,3-benzodiazol-2-yl}methyl)-6′-fluoro-1′,2′-dihydrospiro[cyclopropan-1,3′-indole]-2′-one] | 0.015 | 0.0042 | 0.028 |  |  |
| CS(=O)(=O)C1CCN(CCCn2c(CN3C(=O)C4(CC4)c4ccc(F)cc43)nc3cc(Cl)ccc32)CC1 [Compound 20, 1′-({5-Chloro-1-[3-(4-methanesulfonylpiperidin-1-yl)propyl]-1H-1,3-benzodiazol-2-yl}methyl)-6′-fluoro-1′,2′-dihydrospiro[cyclopropane-1,3′-indole]-2′-one] | 0.012 | 0.0059 | 0.0075 | 1.6 | 61.3 |
| O=C1N(Cc2nc3cc(Cl)ccc3n2CCCN2CCS(=O)(=O)CC2)c2cc(F)ccc2C12CC2 [Compound 28, 4-{3-[5-Chloro-2-({6′-fluoro-2′-oxo-1′,2′-dihydrospiro[cyclopropane-1,3′-indole]-1′-yl}methyl)-1H-1,3-benzodiazol-1-yl]propyl}-1λ6-thiomorpholine-1,1-dione] | 0.115 | 0.0095 | 0.048 |  |  |
| O=C1N(Cc2nc3cc(Cl)ccc3n2CCCN2CCOCC2)c2cc(F)ccc2C12CC2 [Compound 18, 1′-({5-Chloro-1-[3-(morpholin-4-yl)propyl]-1H-1,3-benzodiazol-2-yl}methyl)-6′-fluoro-1′,2′-dihydrospiro[cyclopropane-1,3′-indole]-2′-one] | 0.07 | 0.0076 | 0.06 |  |  |
| CS(=O)(=O)C1CCN(CCCn2c(CN3C(=O)C4(CC4)c4ccc(F)cc43)nc3cc(Cl)ccc32)C1 (stereo not shown) [Compound 14, 1′-({5-Chloro-1-[3-(3-methanesulfonylpyrrolidin-1-yl)propyl]-1H-1,3-benzodiazol-2-yl}methyl)-6′-fluoro-1′,2′-dihydrospiro[cyclopropane-1,3′-indole]-2′-one] | 0.018 | 0.0035 | 0.034 | 4.8 | 68 |
| CS(=O)(=O)CCNCCCn1c(CN2C(=O)C3(CC3)c3ccc(F)cc32)nc2cc(Cl)ccc21 [Compound 10, 1′-[(5-Chloro-1-{3-[(2-methanesulfonylethyl)amino]propyl}-1H-1,3-benzodiazol-2-yl)methyl]-6′-fluoro-1′,2′-dihydrospiro[cyclopropane-1,3′-indole]-2′-one] | 0.012 | 0.0025 | 0.031 |  |  |
| CS(=O)(=O)C1CN(CCCn2c(CN3C(=O)C4(CC4)c4ccc(F)cc43)nc3cc(Cl)ccc32)C1 [Compound 13, 1′-({5-Chloro-1-[3-(3-methanesulfonylazetidin-1-yl)propyl]-1H-1,3-benzodiazol-2-yl}methyl)-6′-fluoro-1′,2′-dihydrospiro[cyclopropane-1,3′-indole]-2′-one] | 0.01 | 0.0045 | 0.041 |  |  |
